Reference: ChEMBL document CHEMBL1201862, “PubChem BioAssay data set” (2004)
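Assay format: 96-well plates, 48-hour exposure. GI50 is the concentration that inhibits growth by half.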 Active and inactive are the calls of the source. Rule as the data show it: active = GI50 up to about 1.1 µM and inactive = higher.

Columns and labels:
Test in all cases: NCI-60 cell line screen, 48 h
TK-10 = system: TK-10
OVCAR-5 = system: OVCAR-5
COLO 205 = system: COLO 205
M14 = system: M14
OVCAR-3 = system: OVCAR-3
786-0 = system: 786-0
EKVX = system: EKVX
SF-295 = system: SF-295
OVCAR-8 = system: OVCAR-8
NCI-H23 = system: NCI-H23
SNB-19 = system: SNB-19
U-251 = system: U-251
HCT-15 = system: HCT-15
RPMI-8226 = system: RPMI-8226
DU-145 = system: DU-145
MDA-N = system: MDA-N
SK-MEL-2 = system: SK-MEL-2
SW-620 = system: SW-620
HOP-62 = system: HOP-62
OVCAR-4 = system: OVCAR-4
SK-MEL-28 = system: SK-MEL-28
A549 = system: A549
T47D = system: T47D
KM12 = system: KM12
UACC-257 = system: UACC-257
PC-3 = system: PC-3
SK-MEL-5 = system: SK-MEL-5
NCI/ADR-RES = system: NCI/ADR-RES
LOX IMVI = system: LOX IMVI
SN12C = system: SN12C
SNB-75 = system: SNB-75
HL-60 = system: HL-60
HCC 2998 = system: HCC 2998
ACHN = system: ACHN
HOP-92 = system: HOP-92
BT-549 = system: BT-549
MCF7 = system: MCF7
SK-OV-3 = system: SK-OV-3
A498 = system: A498
CAKI-1 = system: CAKI-1
UO-31 = system: UO-31
RXF 393 = system: RXF 393
MDA-MB-435 = system: MDA-MB-435
NCI-H460 = system: NCI-H460
CCRF-CEM = system: CCRF-CEM
UACC-62 = system: UACC-62
NCI-H226 = system: NCI-H226
K562 = system: K562
Malme-3M = system: Malme-3M
MOLT-4 = system: MOLT-4
NCI-H522 = system: NCI-H522
IGROV-1 = system: IGROV-1
HCT-116 = system: HCT-116
HT-29 = system: HT-29
SF-539 = system: SF-539
SF-268 = system: SF-268
SR = system: SR

For `CCOC(=O)CCSS(=O)(=O)c1ccccc1`, the GI50 (TK-10) was > 100 µM (inactive), the GI50 (OVCAR-5) was 92.9 µM (inactive) and the GI50 (COLO 205) was 97.7 µM (inactive). The GI50 (M14) was 64.4 µM (inactive), the GI50 (OVCAR-3) was > 100 µM (inactive) and the GI50 (786-0) was 26 µM (inactive). The GI50 (EKVX) was > 100 µM (inactive), the GI50 (SF-295) was > 100 µM (inactive) and the GI50 (OVCAR-8) was > 100 µM (inactive). For the same compound, the GI50 (NCI-H23) was > 100 µM (inactive), the GI50 (SNB-19) was > 100 µM (inactive) and the GI50 (U-251) was > 100 µM (inactive). For the same compound, the GI50 (HCT-15) was 53.2 µM, the GI50 (RPMI-8226) was 35 µM (inactive) and the GI50 (DU-145) was > 100 µM (inactive). The GI50 (MDA-N) was > 100 µM (inactive), the GI50 (SK-MEL-2) was > 100 µM (inactive) and the GI50 (SW-620) was 22.2 µM (inactive). The GI50 (HOP-62) was > 100 µM (inactive), the GI50 (OVCAR-4) was > 100 µM (inactive) and the GI50 (SK-MEL-28) was > 100 µM (inactive). The GI50 (A549) was > 100 µM (inactive), the GI50 (T47D) was > 100 µM (inactive) and the GI50 (KM12) was > 100 µM (inactive). For the same compound, the GI50 (UACC-257) was > 100 µM (inactive), the GI50 (PC-3) was > 100 µM (inactive) and the GI50 (SK-MEL-5) was 62.2 µM (inactive). The GI50 (NCI/ADR-RES) was > 100 µM (inactive), the GI50 (LOX IMVI) was 23.3 µM (inactive) and the GI50 (SN12C) was > 100 µM (inactive). The GI50 (SNB-75) was > 100 µM (inactive), the GI50 (HL-60) was 35.8 µM (inactive) and the GI50 (HCC 2998) was > 100 µM (inactive). For the same compound, the GI50 (ACHN) was > 100 µM (inactive), the GI50 (HOP-92) was 86.7 µM (inactive) and the GI50 (BT-549) was > 100 µM (inactive). For the same compound, the GI50 (MCF7) was 28.6 µM (inactive), the GI50 (SK-OV-3) was > 100 µM (inactive) and the GI50 (A498) was > 100 µM (inactive). The GI50 (CAKI-1) was > 100 µM (inactive), the GI50 (UO-31) was > 10 µM (inactive) and the GI50 (RXF 393) was > 100 µM (inactive). For the same compound, the GI50 (MDA-MB-435) was > 100 µM (inactive), the GI50 (NCI-H460) was > 100 µM (inactive) and the GI50 (CCRF-CEM) was 28.4 µM (inactive). The GI50 (UACC-62) was > 100 µM (inactive) and the GI50 (NCI-H226) was > 100 µM (inactive).

For `CCCSc1ccc2[nH]c(N3C(=O)/C(=C/c4ccco4)N=C3c3ccccc3)cc2c1`, the GI50 (K562) was 15.6 µM (inactive), the GI50 (OVCAR-5) was > 50 µM (inactive) and the GI50 (COLO 205) was 10.4 µM (inactive). For the same compound, the GI50 (Malme-3M) was > 50 µM (inactive), the GI50 (M14) was 21.6 µM (inactive) and the GI50 (OVCAR-3) was 21.6 µM (inactive). The GI50 (786-0) was 23.7 µM (inactive), the GI50 (EKVX) was 16.9 µM (inactive) and the GI50 (OVCAR-8) was > 50 µM (inactive). The GI50 (NCI-H23) was 34.8 µM (inactive), the GI50 (SNB-19) was > 50 µM (inactive) and the GI50 (MOLT-4) was 17.1 µM (inactive). The GI50 (NCI-H522) was 13.2 µM (inactive), the GI50 (HCT-15) was 19.8 µM and the GI50 (RPMI-8226) was 16.7 µM (inactive). The GI50 (DU-145) was > 50 µM (inactive), the GI50 (MDA-N) was 6 µM (inactive) and the GI50 (SK-MEL-2) was 10.3 µM (inactive). For the same compound, the GI50 (IGROV-1) was 40.1 µM (inactive), the GI50 (SW-620) was 20.8 µM (inactive) and the GI50 (HOP-62) was 40.7 µM (inactive). The GI50 (SK-MEL-28) was 33.7 µM (inactive), the GI50 (A549) was 25.7 µM (inactive) and the GI50 (HCT-116) was 21.8 µM (inactive). For the same compound, the GI50 (T47D) was 27.6 µM (inactive), the GI50 (KM12) was 17.7 µM (inactive) and the GI50 (UACC-257) was 18.2 µM (inactive). For the same compound, the GI50 (PC-3) was 21.3 µM (inactive), the GI50 (SK-MEL-5) was 9.89 µM (inactive) and the GI50 (NCI/ADR-RES) was 19.6 µM (inactive). For the same compound, the GI50 (LOX IMVI) was 27.8 µM (inactive), the GI50 (SN12C) was 35 µM (inactive) and the GI50 (SNB-75) was 44 µM (inactive). For the same compound, the GI50 (HL-60) was 11.9 µM (inactive), the GI50 (HCC 2998) was 18.3 µM (inactive) and the GI50 (ACHN) was 38.8 µM (inactive). For the same compound, the GI50 (HOP-92) was > 50 µM (inactive), the GI50 (HT-29) was 21.3 µM (inactive) and the GI50 (SF-539) was 9.42 µM (inactive). For the same compound, the GI50 (BT-549) was 32.7 µM (inactive), the GI50 (SF-268) was 33 µM (inactive) and the GI50 (MCF7) was 15.8 µM (inactive). The GI50 (A498) was 15.4 µM (inactive), the GI50 (CAKI-1) was 34.7 µM (inactive) and the GI50 (UO-31) was 38.3 µM (inactive). The GI50 (RXF 393) was 22.9 µM (inactive), the GI50 (MDA-MB-435) was 8.71 µM (inactive) and the GI50 (NCI-H460) was 18.3 µM (inactive). For the same compound, the GI50 (CCRF-CEM) was 19.3 µM (inactive), the GI50 (UACC-62) was 23.3 µM (inactive) and the GI50 (SR) was 7.26 µM (inactive).
